For orientation: IC50 means the midpoint of a concentration-inhibition curve.

One assay relates to 24 kinds of cell lines. The conditions noted are these: GI50. As to the method: (§1) A cell growth-suppressive activity test was performed in both of two-dimensional culture and three-dimensional culture. First, a plate for three-dimensional culture was produced. Specifically, poly(2-hydroxyethyl methacrylate) (hereinafter abbreviated as poly-HEMA, manufactured by Sigma) was added to 95% ethanol so that the concentration was 5 mg/mL, and dissolved therein at 37° C. overnight. The solution was used as a poly-HEMA solution. The solution was loaded into a 96-well plate (manufactured by Nunc) at 50 μL/well. The plate was dried at 37° C. to produce a plate for three-dimensional culture coated with poly-HEMA.
The two-dimensional culture (hereinafter sometimes referred to as 2D culture) and the three-dimensional culture (hereinafter sometimes referred to as 3D culture) were performed by seeding the cells in a 96-well plate at 1×10^3 cells/150 μL/well and 2×10^3 cells/75 μL/well, respectively, and performing drug treatment on the following day. […] Cell growth was measured by measuring intracellular ATP amounts at the time of the drug treatment and 72 hours after the drug treatment. […] The total volume of each well was transferred to a white 96-well plate (manufactured by Nunc) and measured for its light emission intensity with a Wallac 1420 multilabel counter (manufactured by Perkin Elmer). […]

For a further assay, the system named is SK-MEL-1 cells. Put plainly: cell growth-suppressive activity test. Type of assay: cell-based. The conditions noted are these: 2D and 3D culture, 72 hours, CellTiter-Glo. As to the method: as §1
(§2) The two-dimensional culture (hereinafter sometimes referred to as 2D culture) and the three-dimensional culture (hereinafter sometimes referred to as 3D culture) were performed by seeding the cells in a 96-well plate at 1×10^3 cells/150 μL/well and 2×10^3 cells/75 μL/well, respectively, and performing drug treatment on the following day. The total volume was set to 200 μL in the two-dimensional culture, and the total volume was set to 100 μL in the three-dimensional culture. Cell growth was measured by measuring intracellular ATP amounts at the time of the drug treatment and 72 hours after the drug treatment. Specifically, after the removal of the culture medium at 100 μL/well, CellTiter-Glo (manufactured by Promega) was added at 50 μL/well in the two-dimensional culture, and CellTiter-Glo was added at 50 μL/well in the three-dimensional culture. After the addition, the plate was shaken with a shaker for 2 minutes and left to stand still at room temperature for 10 minutes. The total volume of each well was transferred to a white 96-well plate (manufactured by Nunc) and measured for its light emission intensity with a Wallac 1420 multilabel counter (manufactured by Perkin Elmer). From the resultant light emission amount, a growth ratio (Growth (%)) relative to a non-drug-treated sample after 72 hours was determined using the following mathematical formula 1 and mathematical formula 2.
In general terms: Cellular ATP, detected with luciferase, serves as a proxy for viable cell number.

Assay [1] deals with HCT_116 cells. Briefly: cell growth-suppressive activity test. Type of assay: cell-based. The settings on record: 2D and 3D culture, 72 hours, CellTiter-Glo. On the procedure:
as §1, §2

For another assay, the system named is colo-201 cells. Briefly: cell growth-suppressive activity test. The format is cell-based. The conditions noted are these: 2D and 3D culture, 72 hours, CellTiter-Glo. On the procedure:
as §1, §2

The test system of assay [2] is SW48 cells. Briefly: cell growth-suppressive activity test. The format is cell-based. The conditions noted are these: 2D and 3D culture, 72 hours, CellTiter-Glo. On the procedure:
as §1, §2

The next assay deals with colo-205 cells. Briefly: cell growth-suppressive activity test. Type of assay: cell-based. The settings on record: 2D and 3D culture, 72 hours, CellTiter-Glo. On the procedure:
as §1, §2

The test system of assay [3] is phosphorylation of MEK and ERK. Briefly: MEK and ERK phosphorylation inhibition by western blotting. The format is cell-based. The settings on record: any of the cell lines (A375, HT29, DLD-1, HCT_116, SW48), 0.3-10 μM. As to the method:
(§3) 48 hours after the drug treatment, the cells were collected and subjected to ethanol fixation and PI staining to measure a DNA content with a flow cytometer. In addition, in order to measure target molecule inhibitory activity in the drug-treated cells, the expression of ERK, phosphorylated ERK, MEK, phosphorylated MEK, and actin in the cells was evaluated by western blotting 24 hours after the drug treatment. In addition, the expression amount of a target molecule being phosphorylated was calculated compared to the expression amount of a target molecule to evaluate the influence of each inhibitor on a cell cycle at such a concentration that the expression of the phosphorylation of the target molecule was inhibited by 95% or more.
Background: Immunoblotting shows a protein as a band on a membrane.

For a further assay, the system named is MEK. The settings on record: cited from earlier work.
Another assay relates to DLD-1 cells. Put plainly: cell cycle measurement / apoptosis induction (PI staining, flow cytometer). Type of assay: cell-based. The conditions noted are these: at the concentration that completely inhibited phosphorylation of ERK, 48 hours. On the procedure: (§4) A cell cycle measurement was performed by propidium iodide (PI) staining as described below. First, cells were subjected to drug treatment after 24 hours from seeding thereof in a 6-well plate. After collecting the culture medium and trypsinized cells, they were subjected to centrifugation at 1,000 g for 5 minutes, and the supernatant was removed. 1 mL of PBS^− was added to suspend the cells. The suspension was transferred to a 1.5-mL tube and then subjected to centrifugation treatment at 13,000 g for 1 minute, and the supernatant was removed. 200 μL of PBS^− was added to the residue to suspend the cells, and 1 mL of ice-cold 70% ethanol was added. Then, the cells were vortexed and immobilized at 4° C.
(§5) The immobilized cells were subjected to centrifugation at 1,000 g for 5 minutes, and the supernatant was removed. 1 mL of a PBS^− solution containing 10 μg/mL of RNase was added to the residue to suspend the cells, which was left to stand still at 37° C. for 20 minutes. After that, centrifugation was performed for 5 minutes, and then the supernatant was removed. […] of a PBS^− solution containing PI (50 μg/mL, manufactured by Wako) was added to the residue to suspend the cells. The total volume thereof was passed through a nylon mesh (φ=42 μm) and used as a sample. An intracellular DNA content was detected with PMT4 of a flow cytometer (manufactured by Beckman Coulter) to measure a cell cycle.
(§6) 48 hours after the drug treatment, the cells were collected and subjected to ethanol fixation and PI staining to measure a DNA content with a flow cytometer. […] In addition, the expression amount of a target molecule being phosphorylated was calculated compared to the expression amount of a target molecule to evaluate the influence on a cell cycle at such a concentration of inhibiting the expression of the phosphorylation of the target molecule by 95% or more.
as §3
(In flow cytometry, cells or beads pass a laser one at a time.)

Another assay has as its system HT29 cells. The assay is described as above. The format is cell-based. The conditions noted are these: at the concentration that completely inhibited phosphorylation of ERK, 48 hours. As to the method:
as §4, §5, §6, §3

Another assay relates to A375 cells. The description is as above. Type of assay: cell-based. On the procedure: as §4, §5, §6, §3
Assay [4] concerns HCT_116 cells. The assay is described as above. Type of assay: cell-based. The conditions noted are these: at the concentration that completely inhibited phosphorylation of ERK (MEK and ERK for SB590885), 48 hours. As to the method:
as §4, §5, §6, §3

For assay [5], the system named is SW48 cells. The assay is described as above. The conditions noted are these: at the concentration that completely inhibited phosphorylation of ERK, 48 hours. Type of assay: cell-based. On the procedure:
as §4, §5, §6, §3

The test system of assay [6] is malignant melanoma having an active BRAF mutation. The conditions noted are these: patients with malignant melanoma having an active BRAF mutation, clinical trial; cited from earlier work.

SMILES strings stand for the structures. Read-outs that look alike come from different tables or passages of the source.

Regarding `N#CC(=C(/N)Sc1ccccc1N)/C(C#N)=C(\N)Sc1ccccc1N` [U0126], in the assay on 24 kinds of cell lines, the “tendency of drug sensitivity over the cell line panel compared with SMK-17” value is 23 out of the 24 kinds of cell lines exhibited a tendency of drug sensitivity similar to that in the case of SMK-17. Besides, the “sensitivity in growth-suppressive activity test (from GI50)” value with SK-MEL-1 cells, in the assay on HCT_116 cells [1], with colo-201 cells, in the assay on SW48 cells [2] and in the assay on colo-205 cells was “high sensitivity” each time.
Turning to `CNC(=O)c1cc(Oc2ccc(NC(=O)Nc3ccc(Cl)c(C(F)(F)F)c3)cc2)ccn1` [sorafenib], the “inhibitory effect on the phosphorylation of MEK and ERK” value in [3] is given as “did not provide complete inhibitory effects”.
As for `Cn1cnc2c(F)c(Nc3ccc(Br)cc3Cl)c(C(=O)NOCCO)cc21` [AZD6244], the IC50 with MEK (non-ATP-competitive manner, read-out: MEK inhibition, IC50 value) is ~0.012 µM.
Regarding `O=C(NOCC1CC1)c1ccc(F)c(F)c1Nc1ccc(I)cc1Cl` [PD184352], the “apoptosis induction / influence on cell cycle (sub-G1 population)” value is listed as “did not exhibit any particular influence” in the assay with DLD-1 cells; “remarkable G1 arrest was induced but no apoptosis was induced” with HT29 cells; “remarkable G1 arrest was induced but no apoptosis was induced” with A375 cells (at the concentration that completely inhibited phosphorylation of ERK (MEK and ERK for SB590885), 48 hours); “apoptosis was induced” in the assay on HCT_116 cells [4]; “apoptosis was induced” with SW48 cells [5]. For the same molecule, in the assay on A375 cells (concentration higher than that completely inhibiting phosphorylation of ERK), the apoptosis induction entry is listed as “Apoptosis was induced”.
Take `O=C(NOC[C@H](O)CO)c1ccc(F)c(F)c1Nc1ccc(I)cc1F` [PD0325901]: the “clinical response, total of a partial response and a complete response” value in [6] is given as “about 10%”.
Turning to `COc1cccc(-c2cc(=O)c3ccccc3o2)c1N` [PD098059], the IC50 with MEK (read-out: inhibitory activity on MEK, IC50 value) was […].

(Values after US10139415B2, “Method for predicting responsiveness to compound inhibiting MAPK signal transduction pathway” (DAIICHI SANKYO COMPANY, LIMITED, priority 2013, dated 2018).)
